Experiments:
[1] = LNP characterization: size and PDI by dynamic light scattering, mRNA encapsulation efficiency by RiboGreen assay; type: physicochemical
Method: Particle sizes and “polydispersity index” (PDI) of the lipid particle were measured by dynamic light scattering (DLS). PDI indicates the width of the particle distribution. This is a parameter calculated from a cumulative analysis of the (DLS)-measured intensity autocorrelation function assuming a single particle size mode and a single exponential fit to the autocorrelation function. […] The particles produced by mechanical micromixers such as the NanoAssemblr® Spark™ and NanoAssemblr® Benchtop (Precision NanoSystems Inc.) are substantially homogeneous in size assuming all other variables are neutral. A lower PDI indicates a more homogenous population of lipid particles. The Spark™ instrument is used in a screening setting to identify the lead compositions. Once the composition is selected, the lipid particle can be fine-tuned using the NanoAssemblr® Benchtop. Once the process parameters Flow Rate Ratio and Total Flow Rate is identified for the specific nanoparticle composition, the nanoparticle technology can be scaled up using the same process parameter values.
Lipid particles were also manufactured by a larger microfluidic mixer instrument, the NanoAssemblr® Ignite™ for testing. Briefly, 350 μL of mRNA was diluted using 100 mM sodium acetate buffer to the required concentration of 0.2 to 0.3 mg/mL. Lipid particle samples were then prepared by running both fluids, namely, nucleic acids in aqueous solvent and Lipid Mix in ethanol at a flow ratio of 3:1 and at a total flow rate of 12 ml/min in the microfluidic mixer. Following mixing in the microfluidic device, the post cartridge lipid nucleic acid particle sample was diluted into RNAse free tubes containing three to 40 volumes of phosphate buffered saline (PBS), pH 7.4. Ethanol was finally removed through dialysis in PBS, pH 7, or using Amicon™ centrifugal filters (Millipore, USA) at 3000 RPM, or using TFF systems. Once the required concentration was achieved, the lipid nucleic acid particles were filter sterilized using 0.2 μm filters in aseptic conditions. Final encapsulation efficiency was measured by the Ribogreen™ assay. Quant-iT™ RiboGreen® RNA Reagent and Kit (Invitrogen) following manufacturer directions.
Messenger RNA or plasmid nucleic acid therapeutic (NAT) as described below, was diluted using sodium acetate buffer to the required concentration. Lipid nucleic acid particle (LNAP) samples were then prepared by running both fluids using the NanoAssemblr® Spark instrument. Briefly, […] of nucleic acids in 100 mM sodium acetate buffer in a total volume of 32 μL was mixed with 16 μL of 37.5 mM lipid mix solution as required by the N/P ratios (4, 6, or 10 in illustrated examples). The microfluidically mixed lipid nucleic acid particles (LNAP) made in the instrument were immediately diluted down with 48 μL Ca++ and Mg++ free 1× PBS at pH 7.4 in the aqueous output well. These LNAP were immediately collected into microcentrifuge tubes containing 96 μL of the same buffer at pH 7.4. Encapsulation efficiency was measured by a modified Ribogreen™ assay (Quanti-iT RiboGreen™ RNA assay kit, Fisher). This information was used to establish the desired dosage.
After the lipid particles were made as described in Example 17, particle size (hydrodynamic diameter of the particles) was determined by Dynamic Light Scattering (DLS) using a ZetaSizer™ Nano ZS™ (Malvern Instruments, UK). He/Ne laser of 633 nm wavelength was used as the light source. Data were measured from the scattered intensity data conducted in backscattering detection mode (measurement angle=173). Measurements were an average of 10 runs of two cycles each per sample. Z-Average size was reported as the particle size, and is defined as the harmonic intensity averaged particle diameter. These LNP characteristics, as well as the results of the mRNA encapsulation efficiency for various Lipid Mixes are also described in the application are shown in Tables 4, 5 and 6. […]

primary human T cells = test: EPO mRNA LNP delivery to primary human T cells, Quantikine IVD Human Epo ELISA; type: cell-based
Method: Reagents were acquired from Quantikine, Minneapolis, MN. The assay was performed as directed on the Quantikine® IVD® ELISA Human Erythropoietin Immunoassay protocol in the package insert. Briefly; primary human T cells were isolated from fresh whole blood using a negative selection protocol and activated using a triple activator. Seven days post-activation, T cells were dosed with mRNA LNPs encoding EPO at […] mRNA per 500,000 cells and N/P 10. After 48 h of exposure, the T cells were harvested and lysed for cytosolic EPO and media supernatant was sampled for secreted EPO. Quantikine® Human Serum Controls were used.

[2] = 5-moU EPO encoded LNPs, IL:DSPC:cholesterol:DMG-PEG (50:10:38.5:1.5), N/P 6
[3] = OVA encoded LNPs, payload 5-moU OVA, LM02, N/P 8
[4] = OVA encoded LNPs, payload WT OVA, LM02, N/P 8
[5] = Table 4 LNPs, payload and lipid mix not stated

CCCCC/C=C\C/C=C\CCCCCCCCC(CCCCCCCC/C=C\C/C=C\CCCCC)OC(=O)CCCN(C)C [MC3, DLin-MC3-DMA, reference compound]
Diameter (Z. ave, nm) [1, 2]: 65.1 nm
Encapsulation Efficiency (%) [1, 2]: 98.8%
Polydispersity Index (PDI) [1, 2]: 0.04
Diameter (Z. ave, nm) [1, 3]: 65.8 nm
Encapsulation Efficiency (%) [1, 3]: 95.2%
Polydispersity Index (PDI) [1, 3]: 0.07
Diameter (Z. ave, nm) [1, 4]: 67.5 nm
Encapsulation Efficiency (%) [1, 4]: 95.4%
Polydispersity Index (PDI) [1, 4]: 0.03
Diameter (Z. ave, nm) [1, 5]: 77.2 nm
Encapsulation Efficiency (%) [1, 5]: 88.6%
Polydispersity Index (PDI) [1, 5]: 0.07
cytosolic EPO (primary human T cells; T cell lysate, 48 h exposure, N/P 10, FIG. 5): no cytosolic EPO
secreted EPO (primary human T cells; media supernatant, 48 h exposure, N/P 10, FIG. 5): about 545 mlU/mL
Fold increase in EPO concentration relative to MC3 (primary human T cells; primary human T cells, 48 hours): 1.0
EPO concentration (mIU/mL), 48 hours (primary human T cells; primary human T cells, 48 hours, EPO mRNA LNP, N/P 10): 545.2 mIU/mL

Reference: US12503432B2, “Ionizable lipids for nucleic acid delivery” (Global Life Sciences Solutions Canada ULC, priority 2019, dated 2025)
